In one series the target is T1, human LAT1 (Homo sapiens, UniProt Q01650).
T1 construct: expressed in transfected cells
As to the kind of experiment: Inhibition of amino acid uptake in human LAT1 stably expressing cell line. Format: cell-based. The source says:
A human LAT1 expression vector or a human LAT2 expression vector was transfected using Lipofectamine (registered trademark) 2000 (Invitrogen) into a human embryonic kidney cell line HEK293. G418-resistant HEK293 clones were selected, and among them, a clone showing human LAT1-specific amino acid uptake and a clone showing human LAT2-specific amino acid uptake were selected and established as a human LAT1 stably expressing cell line and a human LAT2 stably expressing cell line, respectively (Khunweeraphong et al. J Pharmacol Sci. 2012 Aug. 18; 119(4): 368-80. Epub 2012 Jul. 31).
The human LAT1 stably expressing cell line and the human LAT2 stably expressing cell line were seeded at 1.2×10^5 cells/well on separate collagen-coated 24-well plates, and after 48 hours, the cells were washed 3 times with an uptake buffer (Na^2+-free Hank's balanced salt solution (HBSS), pH 7.4) prewarmed at 37° C. Compound 10a, compound 10b or a positive control FAMT (fluoro-α-methyltyrosine) was added at 100 μM, and incubation was performed at 37° C. for 3 minutes. Cells not treated with any of these compounds were used as a negative control. After the incubation, 1 μM of [^14C]L-leucine or [^14C]alanine was added to the wells, [^14C]L-leucine or [^14C]alanine uptake was allowed to proceed for 1 minute, and the cells were washed 3 times with an ice-cold uptake buffer. Subsequently, 500 μL of 0.1 M NaOH was added to each well for cell lysis, 20 μL of the lysate was used for the measurement of the protein concentration, and the remaining lysate was used for the measurement of the intracellular radioactivity. The measured radioactivity was normalized to the protein concentration, and on the assumption that the amino acid uptake activity in the negative control was 100%, the percentage (%) of inhibition of amino acid uptake in the presence of each compound was calculated.
Using the same cell lines as described in Example 2, the compound of Example 1 was examined for the inhibitory effect on leucine or alanine uptake in the human LAT1 stably expressing cell line and the human LAT2 stably expressing cell line in the same manner as in Example 2. FAMT was used as the positive control. The compound of Example 1 or FAMT was added at 100 μM. Cells not treated with either of these compounds were used as a negative control. On the assumption that the amino acid uptake activity in the negative control (control) was 100%, the percentage (%) of inhibition of amino acid uptake in the presence of FAMT or the compound of Example 1 was calculated. In addition, the cancer cell selectivity was calculated as the ratio of the amino acid uptake activity in the human LAT2 stably expressing cell line relative to that in the human LAT1 stably expressing cell line.
In another experiment, the cells were treated with the compound of Example 1 at eight different concentrations (0.1, 1, 3, 10, 30, 100, 300 and 1000 μM), and the concentration causing 50% inhibition of amino acid uptake was calculated as the IC50 value.
A human LAT1 stably expressing cell line and a human LAT2 stably expressing cell line, each of which was the same as described in Example 2, were seeded at 1.2×10^5 cells/well, and after 48 hours, the cells were washed 3 times with an uptake buffer (Na^2+-free Hank's balanced salt solution (HBSS), pH 7.4) prewarmed at 37° C. The test compounds, L-tyrosine or the positive control FAMT (fluoro-α-methyltyrosine) was added at 30 μM, and incubation was performed at 37° C. for 3 minutes. Cells not treated with any of these compounds were used as a negative control. After the incubation, 1 μM of [^14C]L-leucine or [^14C]alanine was added to the wells, [^14C]L-leucine or [^14C]alanine uptake was allowed to proceed for 1 minute, and the cells were washed 3 times with an ice-cold uptake buffer. […]

Series [1] has as its system tumor derived from human pancreatic carcinoma cell line MIAPaCa-2. As to the kind of experiment: Accumulation in subcutaneous tumor of nude mouse, HPLC detection after PITC labeling. The note with it: 100 nmol via tail vein, tumor excised 1 hour after administration, FIG. 3. Format: in vivo. Here is the method:
A tumor derived from subcutaneously implanted MIAPaCa-2 cells in a nude mouse was excised, and 0.1 g of the tumor was subcutaneously transplanted into a 6-week-old female nude mouse (BALB/cAJc1-nu). One month after the transplantation, the compound of Example 1 was dissolved in physiological saline at a concentration of 1 mM, and 0.1 mL (100 nmol) of the solution or 0.1 mL of physiological saline was administered from the tail vein. One hour after the administration, the tumor was excised, the amino acids in the tumor tissue were labeled with phenylisothiocyanate (PITC), and the labeled compound was detected by HPLC for evaluation of the accumulation.

A value given as a limit tells only on which side of the number the result lay.

What is called inhibition is how much of the control response was suppressed. The IC50 is the midpoint of a concentration-inhibition curve.

T1 sequence (Q01650 whole entry): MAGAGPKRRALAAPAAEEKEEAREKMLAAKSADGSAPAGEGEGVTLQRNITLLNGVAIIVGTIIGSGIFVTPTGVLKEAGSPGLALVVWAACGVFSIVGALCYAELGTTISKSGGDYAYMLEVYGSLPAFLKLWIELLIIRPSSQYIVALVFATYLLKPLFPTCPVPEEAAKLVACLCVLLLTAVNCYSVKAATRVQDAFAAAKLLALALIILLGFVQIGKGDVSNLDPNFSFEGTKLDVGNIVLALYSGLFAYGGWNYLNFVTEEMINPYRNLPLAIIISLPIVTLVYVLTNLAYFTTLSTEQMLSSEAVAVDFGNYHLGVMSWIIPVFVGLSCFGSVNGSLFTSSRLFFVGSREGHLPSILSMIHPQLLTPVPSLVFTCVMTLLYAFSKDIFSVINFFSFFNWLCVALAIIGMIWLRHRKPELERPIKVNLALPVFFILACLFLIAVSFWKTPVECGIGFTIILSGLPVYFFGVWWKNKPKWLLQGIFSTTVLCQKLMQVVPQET
T1 sequence (P08195 102-630 partner): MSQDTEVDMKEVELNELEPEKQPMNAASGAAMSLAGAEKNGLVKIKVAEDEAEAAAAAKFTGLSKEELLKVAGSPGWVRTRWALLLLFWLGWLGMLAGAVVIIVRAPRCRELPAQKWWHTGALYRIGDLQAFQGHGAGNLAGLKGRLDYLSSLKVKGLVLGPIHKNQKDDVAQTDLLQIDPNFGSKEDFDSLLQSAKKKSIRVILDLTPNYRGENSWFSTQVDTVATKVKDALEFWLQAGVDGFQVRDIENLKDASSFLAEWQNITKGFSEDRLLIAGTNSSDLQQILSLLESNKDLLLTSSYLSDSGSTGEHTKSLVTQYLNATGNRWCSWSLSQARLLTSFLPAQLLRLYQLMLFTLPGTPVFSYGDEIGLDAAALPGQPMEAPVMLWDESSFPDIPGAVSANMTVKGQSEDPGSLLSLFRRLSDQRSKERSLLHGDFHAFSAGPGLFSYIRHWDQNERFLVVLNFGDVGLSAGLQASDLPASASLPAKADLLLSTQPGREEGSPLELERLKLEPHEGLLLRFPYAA

As to `NC(Cc1cc(OCCF)ccc1I)C(=O)O` (stereo not shown) [Example 1, 2-amino-3-(5-(2-fluoroethoxy)-2-iodophenyl)propanoic acid], the inhibition at 100 µM on human LAT1 (HEK293, compound at 100 μM, human LAT1 stably expressing HEK293 cell line, 1 μM [14C]L-leucine or [14C]alanine, 1 min uptake, read-out: Percentage of inhibition of LAT1-mediated amino acid uptake) was 92.5%. The same compound had an IC50 on human LAT1 (eight concentrations 0.1-1000 μM) of 9.2 µM. In addition, the “Selectivity for LAT1 over LAT2” value at human LAT1 (from IC50 values) is listed as ≥ 9 times. In addition, in series [1], the Accumulation in tumor result is given as “accumulated intensively in the tumor”.

The record behind these values is patent US9839701B2, “Aromatic amino acid derivative and positron emission topography (PET) probe using the same” (OSAKA UNIVERSITY, priority 2013, dated 2017).
